The test system of series [1] is RAW264.7. Nature of the series: Cytotoxicity against mouse RAW264.7 cells assessed as effect on cell viability at 5 uM incubated for 24 hrs by alamar blue reagent based fluorescence assay. It counts as toxicity. Conditions: raw264.7, 24 h.
Series [2] deals with RAW264.7. Briefly: Inhibition of LPS-induced NO production in mouse RAW264.7 cells at 5 uM preincubated with compound for 2 hrs followed by LPS stimulation for 24 hrs by Griess reagent based assay relative to control. It counts as functional. Conditions: time 26 hrs. Background: Nitrite, measured by Griess reagent, commonly stands in for NO production.
Series [3] concerns RAW264.7. Briefly: Inhibition of LPS-induced NO production in mouse RAW264.7 cells preincubated with compound for 2 hrs followed by LPS stimulation for 24 hrs by Griess reagent based assay. It counts as functional, cell-based.
Series [4] deals with RAW264.7. Nature of the series: Antiinflammatory activity in LPS-induced mouse RAW264.7 cells assessed as enhancement of JAK2 phosphorylation at […] pretreated with compound for 2 hrs followed by LPS-stimulation and measured after 30 mins by Western blot analysis. It counts as functional, cell-based. As to conditions: time 2.5 hrs. (In western blotting, separated proteins are transferred to a membrane and probed.)

The test system of series [5] is RAW264.7. Nature of the series: Antiinflammatory activity in LPS-induced mouse RAW264.7 cells assessed as enhancement of STAT3 phosphorylation at […] pretreated with compound for 2 hrs followed by LPS-stimulation and measured after 30 mins by Western blot analysis. It is filed as functional, cell-based. As to conditions: time 2.5 hrs.
For series [6], the system named is RAW264.7. Nature of the series: Antiinflammatory activity in LPS-induced mouse RAW264.7 cells assessed as enhancement of STAT3 phosphorylation at 20 uM pretreated with compound for 2 hrs followed by LPS-stimulation and measured after 30 mins by Western blot analysis. It counts as functional, cell-based. As to conditions: time 2.5 hrs.
In series [7] the test system is RAW264.7. Nature of the series: Antiinflammatory activity in LPS-induced mouse RAW264.7 cells assessed as enhancement of JAK2 phosphorylation at 20 uM pretreated with compound for 2 hrs followed by LPS-stimulation and measured after 30 mins by Western blot analysis. It is filed as functional, cell-based. Conditions: time 2.5 hrs.

Calls of active or inactive are those of the source. The calls are words filed in the database; no cut-off is given here.

In the case of `COc1ccc(CCCCC(O)CCc2cccc(O)c2)c(OC)c1` (stereo not drawn), in series [1], the Activity result is recorded as “Non-Toxic”. For the same molecule, the inhibition at 5 µM in series [2] was -14.5%.
Regarding `COc1ccc(CCCCC(=O)CCc2ccc(OC)c(O)c2)c(OC)c1`, the Activity result in series [1] is listed as “Non-Toxic”. Further, the inhibition at 5 µM in series [2] was found to be 16.6%.
With `COc1ccc(/C=C/C=C/C(=O)/C=C/c2cccc(O)c2)c(OC)c1`, the Activity entry in series [1] is reported as “Non-Toxic”. Besides, the IC50 in series [3] amounted to 970 nM. Besides, in series [2], the inhibition at 5 µM was 82.3%.
Take `COc1ccc(CCC(=O)CCCCc2cccc(O)c2)cc1`: in series [1], the Activity entry was “Non-Toxic”. For the same molecule, the inhibition at 5 µM in series [2] came out at 21.4%.
Taken in the same sequence, the figures for `O[C@@H](CC/C=C/c1ccccc1)CCc1ccccc1` were “Non-Toxic” and -18.3%.
Taken in the same sequence, the figures for `O[C@@H](CCCCc1ccccc1)CCc1ccccc1` were “Non-Toxic” and 40.1%.
`COc1ccc(OC)c(CCCCC(O)CCc2ccc(OC)c(O)c2)c1` (stereo not drawn): in series [1], the Activity entry was “Non-Toxic”. Also, the inhibition at 5 µM in series [2] amounted to 36.2%.
The corresponding values for `O=C(CCc1ccccc1)C[C@@H](O)/C=C/c1ccccc1` are “Non-Toxic” and 11%.
With `COc1ccc(OC)c(/C=C/C=C/C(=O)/C=C/c2ccc(OC)c(O)c2)c1`, the Activity result in series [1] is listed as “Non-Toxic”. Also, in series [3], the IC50 is 610 nM. For the same molecule, the inhibition at 5 µM in series [2] amounted to 101%.
As for `Oc1ccc(CCC(O)CC(O)CCc2ccccc2)cc1` (stereo not drawn), in series [1], the Activity entry is reported as “Non-Toxic”. For the same molecule, in series [2], the inhibition at 5 µM came to 20.5%.
As for `O/N=C(/CC/C=C/c1ccccc1)CCc1ccccc1`, the Activity entry in series [1] is listed as “Non-Toxic”. For the same molecule, the inhibition at 5 µM in series [2] came out at 39.4%.
Regarding `O=C(CC/C=C/c1ccccc1)CCc1ccccc1`, the Activity result in series [1] is given as “Non-Toxic”. Also, the inhibition at 5 µM in series [2] is -8.52%.
The corresponding values for `O=C(CCCCc1ccccc1)CCc1ccc(O)cc1` are “Non-Toxic” and 68.3%.
Taken in the same sequence, the figures for `Oc1ccc(CC[C@@H](O)CCCCc2ccccc2)cc1O` were “Non-Toxic” and 54%.
In the case of `O[C@@H](/C=C/C=C/c1ccccc1)CCc1ccccc1`, in series [1], the Activity entry is on record as “Non-Toxic”. Moreover, the inhibition at 5 µM in series [2] was 4.61%.
As for `COc1cc(/C=C/C(=O)CC(=O)/C=C/c2ccc(O)c(OC)c2)ccc1O` [CURCUMIN], in series [1], the Activity result is “Non-Toxic”. Moreover, the IC50 in series [3] is 1890 nM. Moreover, the inhibition at 5 µM in series [2] was determined as 74%.
Consider `Oc1ccc(CC[C@@H](O)CC/C=C/c2ccccc2)cc1`, for which the Activity result in series [1] is recorded as “Non-Toxic”. The inhibition at 5 µM in series [2] was found to be 20.4%.
For `COC(/C=C/C=C/c1ccccc1)CCc1ccc(O)cc1` (stereo not drawn), the Activity result in series [1] is recorded as “Non-Toxic”. The inhibition at 5 µM in series [2] came out at 66.3%.
Consider `CC(=O)OCC[N+](C)(C)C`, for which the result in series [4], in series [5], in series [6] and in series [7] was Active.
With `COc1ccc(/C=C/C(=O)/C=C/C=C/c2cccc(O)c2)cc1`, the Activity entry in series [1] was “Non-Toxic”. Moreover, in series [3], the IC50 turned out to be 1230 nM. In series [2], the inhibition at 5 µM came to 85.8%.
For the molecule `COc1ccc(CCC(=O)CC/C=C/c2ccccc2)cc1`, in series [1], the Activity entry was “Non-Toxic”. Besides, the inhibition at 5 µM in series [2] was -17.2%.
Consider `CC(=O)Oc1ccc(CCC(=O)CCCCc2ccccc2)cc1`, for which the Activity result in series [1] is “Non-Toxic”. In addition, in series [2], the inhibition at 5 µM is 45.2%.
In the case of `CC(=O)Oc1ccc(CC[C@@H](O)CCCCc2ccccc2)cc1OC(C)=O`, the Activity entry in series [1] is “Non-Toxic”. In series [3], the IC50 was 330 nM. In addition, the inhibition at 5 µM in series [2] is 99.2%.
On to `O=C(/C=C/C=C/c1ccccc1)CCc1ccc(O)cc1`, for which the Activity result in series [1] was “Non-Toxic”. Moreover, the inhibition at 5 µM in series [2] is 60.4%.
In the case of `COc1ccc(/C=C2\CCCN=C2c2cccnc2)c(OC)c1`, the outcome in series [4], in series [5], in series [6] and in series [7] was Active.
In the case of `O=C(CC/C=C/c1ccccc1)CCc1ccc(O)cc1`, the Activity result in series [1] was “Non-Toxic”. The inhibition at 5 µM in series [2] stood at 46.1%.
For the molecule `CC(=O)Oc1ccc(CC[C@@H](O)CC/C=C/c2ccccc2)cc1OC(C)=O`, in series [1], the Activity result is reported as “Non-Toxic”. In series [3], the IC50 was 1610 nM. Further, the inhibition at 5 µM in series [2] came to 121%.
As to `COc1cccc(/C=C/C=C/C(=O)/C=C/c2cccc(O)c2)c1`, in series [1], the Activity result is on record as “Non-Toxic”. Moreover, the IC50 in series [3] is 410 nM. In addition, the inhibition at 5 µM in series [2] was 92.3%.
Regarding `COc1ccc(CCC(=O)CCCCc2cccc(O)c2)cc1O`, the Activity entry in series [1] is “Non-Toxic”. Further, the inhibition at 5 µM in series [2] was 8.39%.
The corresponding values for `COc1cc(CCC(O)/C=C/C=C/c2ccccc2)ccc1O` (stereo not drawn) are “Non-Toxic” and 35.3%.
With `Oc1ccc(CCC(O)/C=C/C=C/c2ccccc2)cc1O` (single isomer, unassigned), the Activity result in series [1] was “Non-Toxic”. The inhibition at 5 µM in series [2] worked out at 12.3%.
The corresponding values for `Oc1ccc(CCCC[C@H](O)CCc2ccccc2)cc1` are “Non-Toxic” and 23.9%.
Taken in the same sequence, the figures for `COc1ccc(CCCCC(O)CCc2ccc(OC)c(O)c2)c(OC)c1` (stereo not drawn) were “Non-Toxic” and -2.9%.
Taken in the same sequence, the figures for `O=C(CCCCc1ccccc1)CCc1ccccc1` were “Non-Toxic” and 38.9%.
Turning to `CC(=O)Oc1ccc(CCC(=O)CC/C=C/c2ccccc2)cc1`, the Activity entry in series [1] is listed as “Non-Toxic”. The inhibition at 5 µM in series [2] worked out at 22.2%.
Turning to `O=C(/C=C/C=C/c1ccccc1)CCc1ccccc1`, the Activity result in series [1] is on record as “Non-Toxic”. Also, the inhibition at 5 µM in series [2] was 52.8%.
Consider `C(=C\C=C\c1ccccc1)/C=C/Cc1ccccc1`, for which, in series [1], the Activity entry is reported as “Non-Toxic”. Further, the concentration for half-maximal inhibition (IC50) in series [3] was 840 nM. Moreover, the inhibition at 5 µM in series [2] amounted to 124%.
`O[C@@H](CC/C=C/c1ccccc1)CCc1ccc(OCc2ccccc2)cc1`: the Activity entry in series [1] was “Non-Toxic”. Besides, in series [2], the inhibition at 5 µM was -15.7%.
The corresponding values for `COc1ccc(OC)c(CCCCC(=O)CCc2ccc(OC)c(O)c2)c1` are “Non-Toxic” and 39.4%.
For the molecule `O=C(/C=C/C=C/c1cccc(O)c1)/C=C/c1cccc(O)c1`, the Activity result in series [1] is on record as “Non-Toxic”. Further, the 50% inhibitory concentration (IC50) in series [3] was 580 nM. Also, the inhibition at 5 µM in series [2] came to 95.9%.
As for `COc1ccc(CCC(/C=C/C=C/c2ccccc2)OC)cc1O` (stereo not drawn), in series [1], the Activity result is recorded as “Non-Toxic”. The inhibition at 5 µM in series [2] worked out at 71.1%.
Take `COc1cc(CCC(=O)CC/C=C/c2ccccc2)ccc1O`: in series [1], the Activity entry is “Non-Toxic”. Besides, in series [2], the inhibition at 5 µM amounted to 52.2%.
Take `COc1cccc(/C=C/C(=O)/C=C/C=C/c2cccc(O)c2)c1`: in series [1], the Activity entry is “Non-Toxic”. Also, the IC50 in series [3] turned out to be 810 nM. In addition, the inhibition at 5 µM in series [2] came to 84.3%.
For the molecule `COc1cc(CC[C@@H](O)CC/C=C/c2ccccc2)ccc1O`, the Activity result in series [1] is reported as “Non-Toxic”. Besides, the inhibition at 5 µM in series [2] turned out to be 47.9%.
With `O=C(CCc1ccccc1)C[C@@H](O)CCc1ccccc1`, the Activity entry in series [1] is “Non-Toxic”. Besides, in series [2], the inhibition at 5 µM worked out at 14.7%.
Taken in the same sequence, the figures for `Oc1ccc(CC[C@@H](O)CC/C=C/c2ccccc2)cc1O` were “Non-Toxic” and 34.7%.
Taken in the same sequence, the figures for `COc1ccc(CCCCC(=O)CCc2cccc(O)c2)c(OC)c1` were “Non-Toxic” and 2.74%.
Regarding `CC(=O)Oc1ccc(CCC(=O)CCCCc2ccccc2)cc1OC(C)=O`, the Activity result in series [1] was “Non-Toxic”. Moreover, the IC50 in series [3] was 370 nM. Further, the inhibition at 5 µM in series [2] came to 128%.
With `OC(CCc1ccccc1)CC(O)CCc1ccccc1` (stereo not drawn), the Activity entry in series [1] was “Non-Toxic”. Besides, the inhibition at 5 µM in series [2] turned out to be 23.5%.

One may read the inhibition as the change of the read-out against control, counted positive when it falls. As usually defined, the IC50 is the point on the concentration scale where inhibition reaches its midpoint.

Values taken from ChEMBL document CHEMBL5120875, “Discovery of diarylheptanoids that activate α7 nAchR-JAK2-STAT3 signaling in macrophages with anti-inflammatory activity in vitro and in vivo” (Bioorg Med Chem, 2022).
